Where no end group is shown, it is not given here.
What was measured:
[1] = molecular target: HIV integrase (1-210 aa) and the peptide LYETILILLFLDVDT (SEQ ID NO:7) (Human immunodeficiency virus type 1 group M subtype B, UniProt P04585, G1270S/R1274K); type: cell-based; settings: yeast screening strain
GAL^BD-PRNHR-GAL^AD = GAL^BD-PRNHR-GAL^AD (Homo sapiens, UniProt P06401); type: cell-based, yeast; settings: control strain, FIG. 4
[2] = molecular target: GAL4^AD-HIV integrase (1-210 a.a.) and GAL4^BD-PR^LBD-INF5 (Homo sapiens, UniProt P06401); test: steroid release two hybrid yeast LacZ assay (CUG fluorescence); type: cell-based; settings: strain expressing integrase fused to GAL4^AD and the interacting peptide
HIV integrase = HIV integrase (Human immunodeficiency virus type 1 group M subtype B, UniProt P04585); test: biochemical; type: binding
[3] = molecular target: T1, GAL4^AD control (pVT 702, GAL4 activation domain alone); test: steroid release yeast two-hybrid, LacZ reporter
T1 construct: also called pADH-GAL^AD base vector
T1 chain: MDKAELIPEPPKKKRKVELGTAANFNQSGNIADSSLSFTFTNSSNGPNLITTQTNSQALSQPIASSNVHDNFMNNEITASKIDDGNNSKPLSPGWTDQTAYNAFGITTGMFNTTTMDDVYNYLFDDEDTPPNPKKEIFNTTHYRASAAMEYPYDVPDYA

For `CC(=O)[C@H]1CC[C@H]2[C@@H]3CCC4=CC(=O)CC[C@]4(C)[C@H]3CC[C@]12C` [progesterone], the signal-to-background ([1]; 8 μM progesterone) was roughly 4, the expression of beta-galactosidase ([1]; FIG. 3 dose response) was “stimulated expression of beta-galactosidase” and the signal-to-background (GAL^BD-PRNHR-GAL^AD) was roughly 100. The “signal (RFU)” value [2] was “increase in signal”.

In the case of “LYETILILLFLDVDT [SEQ ID NO:7, LYETILILLFLDVDT]”, the Kd (HIV integrase) is reported as roughly 5 µM.

B1: GAL4^BD-PR^LBD-INF5 hybrid protein (GAL4 DNA binding domain fused to the progesterone receptor ligand binding domain and the HIV integrase inhibitory peptide … (other)
chain: MKLLSSIEQACDICRLKKLKCSKEKPKCAKCLKNNWECRYSPKTKRSPLTRAHLTEVESRLERLEQLFLLIFPREDLDMILKMDSLQDIKALLTGLFVQDNVNKDAVTDRLASVETDMPLTLRQHRISATSSSEESSNKGQRQLTVSPVLQYPALTMIQLIPPLINLLMSIEPDVIYAGHDNTKPDTSSSLLTSLNQLGERQLLSVVKWSKSLPGFRNLHIDDQITLIQYSWMSLMVFGLGWRSYKHVSGQMLYFAPDLILNEQRMKESSFYSLCLTMWQIPQEFVKLQVSQEEFLCMKVLLLLNTIPLEGLRSQTQFEEMRSSYIRELIKAIGLRQKGVVSSSQRFYQLTKLLDNLHDLVKQLHLYCLNTFIQSRALSVEFPEMMSEVIAAQLPKILAGMVKPLLFHKALYETILILLFLDVDT
notes: also called GAL4^BD-PR^LBD-IN5
B1: no binding [3].
